Key:
Assay type in all cases: in vivo
[1] = Changes in concentration in lung tissues and in plasma upon intra-airway (intrabronchial) administration; details: SD rats, 4 mg/kg; for AUC in lung tissues (concentration in lung tissues) / AUC in plasma (concentration in plasma): 0.25-4 hours; for half-life / Kp: male, rat, other: intrabronchial; for half-life: in vivo, read-out: biological half-life (T1/2) (converted); for Kp: lung tissue / plasma, read-out: ratio of concentration in lung tissues to concentration in plasma (AUC)
Experimental: Male rats of SD strain (Nippon Charles Liver, Kanagawa) were bred under the condition of temperature of 23±1° C. and humidity of 55±5%, and those where body weight was 210 to 240 g at seven weeks age were used for the test. Administration of the test compound (Compound (II)) was conducted under a non-fasting condition, and during the test, solid feed (F-2; Funahashi Nojo, Chiba) and tap water were freely taken by them. Case numbers for the test was made n=2 for each stage.
According to a conventional method, the preparations of Compound (II) and RP 73401 being known as a PDE-IV inhibitor [drawing 9] [J. Med. Chem., volume 37, pages 1696-1703 (1994)] were prepared (lactose/Compound (II) or RP 73401=5/1), and each of them was suspended in 0.125 weight/volume % tyloxapol (Alevaire: registered trade mark, Nippon Shoji, Osaka). The resulting suspension was further diluted with 0.125 weight/volume % tyloxapol containing 0.25 weight/volume % of lactose (Pharmatose 325 M; registered trade mark, DMV International, Veghel, The Nethelands) (a solvent for administration), and a suspension for administration of Compound (II) or RP 73401 having an desired concentration was prepared.
Each of Compound (II) and RP 73401 was intrabronchially administered at a dose of 4 mg/kg, respectively. The solvent for administration or the suspension for administration of Compound (II) or RP 73401 was intrabronchially administered to each of right and left bronchi of an ether-anesthetized rat at a dose of 100 μL (200 μL in total) using a disposable oral sound (for mice; Fuchigami Kikai, Kyoto).
At each of stages of 0.25, 0.5, 1, 2 and 4 hours after the intrabronchial administration, abdomen of rat under a light anesthetization with ether was incised, and about 1 mL of blood was collected from a descending vena cava using a heparin-treated syringe (24 G; 1 mL; Thermo, Tokyo). Plasma was separated from the blood using a cooling centrifugal separator and stored by freezing at −20° C. until the measurement. After washing the pulmonary alveoli, the bronchus was resected to collect the lung. The wet weight of the lung was measured and the lung was stored by freezing.
To 100 μL of the plasma collected hereinabove was added a 200 μL of methanol solution of 25 μg/mL 7-[2-(3,5-dichloro-4-pyridyl)-1-oxoethyl]-4-methoxy-spiro-[1,3-benzodioxole-2,1′-cyclohexane] (an internal standard substance), and the mixture was stirred. The mixture was allowed to stand for 10 minutes on ice, followed by centrifuged, and then 200 μL of the supernatant was dried under a nitrogen flow. The resulting solid was dissolved in 200 μL of methanol and centrifuged. The resulting supernatant was subjected to centrifugal filtration using a centrifugal filtration unit ultrafree (C3GV; 0.22 μm; Nippon Millipore, Tokyo). The filtrate (100 μL) was used as a plasma sample and concentrations of Compound (II) and RP 73401 were measured using a mass spectrometer (LC/MS/MS).
In an immunotube (15 mL: Nunc, Glostrup, Denmark), to the lung prepared hereinabove was added the internal standard substance in which the concentration to the lung tissues was previously made 10 μg/g lung tissues, and the mixture was dried under a nitrogen flow. To the resulting solid was added pure water (Milli-Q SP Reagent Water System: Nippon Millipore, Tokyo) in an amount of one-fold to the wet weight followed by subjecting to homogenizing using a homogenator (Ikemoto Rika Kogyo, Tokyo). A two-fold amount of methanol was further added thereto and the mixture was homogenized, allowed to stand for 10 minutes on ice and centrifuged. The supernatant (300 μL) was taken into a microtube and centrifuged once again. The resulting supernatant (100 μL) was used as a lung sample, and concentrations of Compound (II) and RP 73401 were measured by using of a high-performance liquid chromatography (HPLC).

[2] = tested on: antigen-induced eosinophil infiltration; experiment: Antigen-induced eosinophil infiltration, intrabronchial administration (BALF cell count); details: BN rats; for Number of eosinophils: BAL 24 hours after antigenic exposure, mean ± standard error; for inhibitory effect to infiltration of eosinophils induced by antigen (in words): 30 to 100 μg/rat
Experimental: (§1) The test was conducted in accordance with a known method [Pulmonary Pharmacology, volume 8, pages 83-89 (1995)].
(§2) Male BN rats of six weeks age (Nippon Charles Liver) were used for the test. Five to six rats were put in each plastic cage in a breeding room where the room temperature was 19 to 25° C., humidity was 30 to 70% and a daily illumination was 12 hours (from 7 a.m. to 7 p.m.), and breeding was conducted where commercially available solid feed and water were freely taken by the rats.
(§3) A suspension (1 mL) of 1 mg of ovalbumin (OVA; manufactured by Sigma) and 200 mg of aluminum hydroxide (manufactured by Wako Pure Chemical) in 1 mL of a physiological saline (manufactured by Otsuka Pharmaceutical) was subcutaneously administered to each rat, and then 0.5 mL of a suspension of killed Virdetella pertussis (2×10^10 cells/mL physiological saline solution; manufactured by Kaken Pharmaceutical) was intraperitoneally administered to conduct active sensitization. After 14 days from the active sensitization, the rats were placed in a plastic chamber (30×50×30 cm) and subjected to an antigenic exposure by nebulizing of an 1 weight/volume % solution of OVA in a physiological saline for 10 minutes. For the nebulizing, an ultrasonic nebulizer (manufactured by Omron) was used.
(§4) By the same manner as in Test Example 1, a suspension for administration of Compound (II) was prepared and intrabronchially administered to the sensitized rats.
(§5) Before 30 minutes of the antigenic exposure, the solvent for administration or the suspension for administration of Compound (II) was intrabronchially administered to the sensitized rats at a dose of 100 μL to each of right and left bronchi (200 μL in total). A group where a suspension for administration of Compound (II) was intrabronchially administered to the sensitized rat and an 1 weight/volume % OVA-physiological saline solution was nebulized, was called a Compound (II)-administered group; a group where the solvent for administration was intrabronchially administered to the sensitized rat and an 1 weight/volume % OVA-physiological saline solution was nebulized, was called a solvent-administered group; and a group where the solvent for administration was intrabronchially administered and a physiological saline was nebulized, was called a physiological saline group.
(§6) After 24 hours of the antigenic exposure or of the nebulizing with a physiological saline, a broncho-alveolar lavage (BAL) was conducted. Thus, a rat was anesthetized by an intraperitoneal administration of pentobarbital (manufactured by Dainippon Pharmaceutical) and pulmonary alveoli cavity was washed with a physiological saline via an airway cannula to prepare a broncho-alveolar lavage fluid (BALF).
(§7) The BALF was centrifuged under the condition of 950 rpm (200×g) at 4° C. for 10 minutes, the precipitated cells were suspended in 1 mL of a physiological saline, and total leukocyte numbers were measured by an automatic blood corpuscle counter (manufactured by Nippon Koden). Smeared samples of cells were also prepared using Cytospin III (manufactured by Shandon). After the smeared sample was subjected to a Giemsa staining, 500 cells were observed under an optical microscope, numbers of eosinophils and neutrophils were counted and their ratios were calculated. Number of eosinophils and number of neutrophils were calculated by multiplying the total leukocyte numbers by each ratio of number of eosinophils and number of neutrophils, respectively. Inhibition rate (%) to increases of number of eosinophils and number of neutrophils respectively in BALF was calculated according to the following. [formula]
(§8) A: Numbrer of eosinophils or neutrophils in the solvent-administering group
(§9) B: Numbrer of eosinophils or neutrophils in the Compound (II)-administered group
(§10) C: Numbrer of eosinophils or neutrophils in the physiological saline group

[3] = tested on: antigen-induced neutrophil infiltration; experiment: Antigen-induced neutrophil infiltration, intrabronchial administration (BALF cell count); details: BN rats; for Number of neutrophils: BAL 24 hours after antigenic exposure, mean ± standard error; for inhibitory effect to infiltration of neutrophils induced by antigen (in words): 30 to 100 μg/rat
Experimental: as §1, §2, §3, §4, §5, §6, §7, §8, §9, §10

[4] = tested on: gastric excretion; experiment: Inhibitory activity for gastric excretion by intrabronchial administration (Phenol Red method); details: SD rats, intrabronchial 30 minutes before P-C solution, 30 to 100 μg/rat
Experimental: Male SD rats (six weeks age; body weight upon purchase was 180 to 200 g; Nippon SLC) were used for the test. The rats were bred in an animal room where room temperature was 23±1° C., humidity was 55±5% and solid feed and drinking water were made freely taken by them.
Suspensions for administration of Compound (II) and RP 73401 were prepared by the same manner as in Test Example 1 and each of them was subjected to an intrabronchial administration.
The rats (body weight used for the experiment: about 200 g) were fasted on the day before the test (before about 24 hours) and were bred only by drinking water. A test for gastric excretion was conducted according to a Phenol Red method [Arch. Int. […]
A 1.5 mL of an 1.5 weight/volume % carboxymethyl cellulose (CMC) solution containing a 0.05 weight/volume % Phenol Red (hereinafter, referred to as P—C solution) was orally administered to the rats where one group comprised six rats. […] The extirpated stomach was incised in 40 mL of a 0.1 mol/L aqueous NaOH solution to recover the P—C solution and the amount of Phenol Red remaining in the stomach was measured. […] The gastric excretion ratio (%) in the agent-administered group or the solvent-administered group was calculated by the following equation (1) while the inhibition rate (%) of the agent to the gastric excretion was calculated from the gastric excretion ratio using the following equation (2). […]

| Structure (SMILES) | AUC in lung tissues (concentration in lung tissues) [1] | AUC in plasma (concentration in plasma) [1] | half-life [1] | Kp [1] | Inhibition rate to increase of number of eosinophils in BALF ([2]; 30 μg/rat) | Number of eosinophils ([2]; 30 μg/rat) | Inhibition rate to increase of number of eosinophils in BALF ([2]; 100 μg/rat) | Number of eosinophils ([2]; 100 μg/rat) | inhibitory effect to infiltration of eosinophils induced by antigen (in words) [2] | Inhibition rate to increase of number of neutrophils in BALF ([3]; 30 μg/rat) | Number of neutrophils ([3]; 30 μg/rat) | Inhibition rate to increase of number of neutrophils in BALF ([3]; 100 μg/rat) | Number of neutrophils ([3]; 100 μg/rat) | inhibitory effect to infiltration of neutrophils induced by antigen (in words) [3] | inhibitory effect to gastric excretion (in words) [4] |
| --- | --- | --- | --- | --- | --- | --- | --- | --- | --- | --- | --- | --- | --- | --- | --- |
| COc1ccc(C(=O)Cc2c(Cl)cncc2Cl)c2c1OC1(CCCC1)O2 [Compound (II), 7-[2-(3,5-dichloro-4-pyridyl)-1-oxoethyl]-4-methoxy-spiro-[1,3-benzodioxole-2,1′-cyclopentane]] | 3640 µg·h/mL | 0.733 µg·h/mL | 3.81 h | 4970 | 50% | 0.09 ± 0.03 10^6/BALF | 86% | 0.04 ± 0.01^## 10^6/BALF | inhibited | 56% | 0.64 ± 0.14 10^6/BALF | 80% | 0.43 ± 0.06^# 10^6/BALF | inhibited | no significant inhibitory effect to gastric excretion was observed |
| COc1ccc(C(=O)Nc2c(Cl)cncc2Cl)cc1OC1CCCC1 [RP 73401, reference compound] | 248 µg·h/mL | 0.826 µg·h/mL | 0.341 h | 300 |  |  |  |  | significant inhibitory activity |  |  |  |  | significant inhibitory activity | a dose-depending inhibitory effect to gastric excretion was observed |
